Converted amounts (≈) assume the structure as drawn. Read-outs that look alike come from different tables or passages of the source.
Experiments:
Test in all cases: Antifungal susceptibility by microbroth dilution (CLSI)
Type in all cases: cell-based
[1] = system: Aspergillus fumigatus MCC 1046
Procedure: (§1) The synthesized compounds were evaluated for antifungal susceptibility by microbroth dilution method according to the recommendations of the Clinical Laboratory Standards Institute (CLSI 2008). Briefly, appropriate amount of compounds were dissolved in dimethyl sulfoxide to get 100× final strength. The stock was then diluted 1:50 in RPMI/YPG medium and 200 μl from this was added to the first row of a 96-well microtitre plate. The compounds were serially diluted two fold in successive wells to get a range of 1-128 μg/ml. Fungal yeast cells (˜2×10^3 cfu/mL), freshly grown in YPG broth in logarithmic phase, were suspended in the medium and inoculated (100 μl) in the wells of the plate. For filamentous fungi, 2×10^4 spores/mL were added. The microtitre plate was incubated for 48 h, and the absorbance was measured at 600 nm by using microtitre plate reader to assess cell growth.

[2] = system: Aspergillus niger ATCC 10578
Procedure: as §1

[3] = system: C. tropicalis ATCC 750; settings: Candida tropicalis, ATCC750; Table 2
Procedure: as §1

[4] = system: Candida albicans ATCC 10231
Procedure: as §1

[5] = system: Candida albicans ATCC 24433
Procedure: as §1

[6] = system: Candida glabrata NCYC 388
Procedure: as §1

[7] = system: Cryptococcus neoformans ATCC 34664
Procedure: as §1

[8] = Aspergillus fumigatus, MCC1046, Table 2, read-out: MIC values
[9] = Aspergillus niger, ATCC10578, Table 2, read-out: MIC values
[10] = Candida albicans, ATCC10231, Table 2, read-out: MIC values
[11] = Candida albicans, ATCC24433, Table 2, read-out: MIC values
[12] = Nakaseomyces glabratus, NCYC388, Table 2, read-out: MIC values
[13] = Cryptococcus neoformans, ATCC34664, Table 2, read-out: MIC values
[14] = Table 1, 48 h, >90% inhibition of growth
[15] = Table 1, 48 h, >90% inhibition of growth, range 1-128 μg/ml

| SMILES | MIC [1, 8] [mg/L] | MIC [2, 9] [mg/L] | MIC [3] [mg/L] | MIC [4, 10] [mg/L] | MIC [5, 11] [mg/L] | MIC [6, 12] [mg/L] | MIC [7, 13] [mg/L] | MIC [1, 14] [mg/L] | MIC [2, 14] [mg/L] | MIC [4, 14] [mg/L] | MIC [5, 15] [mg/L] | MIC [6, 14] [mg/L] | MIC [7, 14] [mg/L] |
| --- | --- | --- | --- | --- | --- | --- | --- | --- | --- | --- | --- | --- | --- |
| CC(O)(Cc1cn(-c2ccc(F)cc2O)nn1)c1ccc(F)cc1 (stereo not shown) [Compound 3dc, 5-Fluoro-2-(4-(2-(4-fluorophenyl)-2-hydroxypropyl)-1H-1,2,3-triazol-1-yl)phenol] | 128 (≈ 386 µM) | 256 (≈ 773 µM) | > 256 |  | 64 (≈ 193 µM) |  | 256 (≈ 773 µM) |  |  |  |  |  |  |
| CC(O)(Cc1cn(-c2ccc(Cl)cc2O)nn1)c1ccc(F)cc1F (stereo not shown) [Compound 3ab, 5-Chloro-2-(4-(2-(2,4-difluorophenyl)-2-hydroxypropyl)-1H-1,2,3-triazol-1-yl)phenol] | 64 (≈ 175 µM) | 64 (≈ 175 µM) | 64 (≈ 175 µM) | 32 (≈ 87.5 µM) | 16 (≈ 43.7 µM) | 32 (≈ 87.5 µM) | 32 (≈ 87.5 µM) |  |  |  |  |  |  |
| CC(O)(Cc1cn(-c2ccc(F)cc2O)nn1)c1ccc(Br)cc1 (stereo not shown) [Compound 3fc, 2-(4-(2-(4-Bromophenyl)-2-hydroxypropyl)-1H-1,2,3-triazol-1-yl)-5-fluorophenol] | 64 (≈ 163 µM) | 128 (≈ 326 µM) | 128 (≈ 326 µM) | 16 (≈ 40.8 µM) | 8 (≈ 20.4 µM) | 64 (≈ 163 µM) | 64 (≈ 163 µM) |  |  |  |  |  |  |
| CC(O)(Cc1cn(-c2ccccc2O)nn1)c1ccc(Cl)cc1 (stereo not shown) [Compound 3ed, 2-(4-(2-(4-Chlorophenyl)-2-hydroxypropyl)-1H-1,2,3-triazol-1-yl)phenol] | 64 (≈ 194 µM) | 128 (≈ 388 µM) | 256 (≈ 776 µM) |  | 8 (≈ 24.3 µM) |  | 128 (≈ 388 µM) |  |  |  |  |  |  |
| CC(O)(Cc1cn(-c2ccc(Cl)cc2O)nn1)c1ccc(Cl)cc1 (stereo not shown) [Compound 3eb, 5-Chloro-2-(4-(2-(4-chlorophenyl)-2-hydroxypropyl)-1H-1,2,3-triazol-1-yl)phenol] | 64 (≈ 176 µM) | 64 (≈ 176 µM) | 64 (≈ 176 µM) | 16 (≈ 43.9 µM) | 32 (≈ 87.9 µM) | 32 (≈ 87.9 µM) | 32 (≈ 87.9 µM) |  |  |  |  |  |  |
| CC(O)(Cc1cn(-c2ccc(F)cc2O)nn1)c1ccc(F)cc1F (stereo not shown) [Compound 3ac, 2-(4-(2-(2,4-Difluorophenyl)-2-hydroxypropyl)-1H-1,2,3-triazol-1-yl)-5-fluorophenol] | 64 (≈ 183 µM) | 128 (≈ 366 µM) | 128 (≈ 366 µM) |  | 8 (≈ 22.9 µM) |  | 128 (≈ 366 µM) |  |  |  |  |  |  |
| CCCCC(O)(Cc1cn(-c2ccc(Cl)cc2O)nn1)c1ccccc1 (stereo not shown) [Compound 2hb] |  |  |  |  |  |  |  | >128 | >128 | >128 | 64 (≈ 172 µM) | 64 (≈ 172 µM) | 32 (≈ 86.1 µM) |
| CC(O)(Cc1cn(-c2ccccc2O)nn1)c1ccc(F)cc1F (stereo not shown) [Compound 3ad, 2-(4-(2-(2,4-Difluorophenyl)-2-hydroxypropyl)-1H-1,2,3-triazol-1-yl)phenol] | 128 (≈ 386 µM) | 128 (≈ 386 µM) | 256 (≈ 773 µM) |  | 8 (≈ 24.1 µM) |  | 128 (≈ 386 µM) |  |  |  |  |  |  |
| Oc1cc(F)ccc1-n1cc(CC(O)c2ccc(C(F)(F)F)cc2F)nn1 (stereo not shown) [Compound 3cc, 5-Fluoro-2-(4-(2-(2-fluoro-4-(trifluoromethyl)phenyl)-2-hydroxyethyl)-1H-1,2,3-triazol-1-yl)phenol] | > 256 | > 256 | > 256 |  | 128 (≈ 332 µM) |  | > 256 |  |  |  |  |  |  |
| Oc1cc(Cl)ccc1-n1cc(CC(O)c2ccc(C(F)(F)F)cc2F)nn1 (stereo not shown) [Compound 3cb, 5-Chloro-2-(4-(2-(2-fluoro-4-(trifluoromethyl)phenyl)-2-hydroxyethyl)-1H-1,2,3-triazol-1-yl)phenol] | > 256 | > 256 | > 256 |  | 16 (≈ 39.8 µM) |  | > 256 |  |  |  |  |  |  |
| CCC(O)(c1ccccc1)c1cn(-c2cc(Cl)ccc2O)nn1 (stereo not shown) [Compound 2da] |  |  |  |  |  |  |  | 128 (≈ 388 µM) | 64 (≈ 194 µM) |  | 128 (≈ 388 µM) | 128 (≈ 388 µM) | >128 |
| CC(O)(Cc1cn(-c2ccc(F)cc2O)nn1)c1ccc(Cl)cc1 (stereo not shown) [Compound 3ec, 2-(4-(2-(4-Chlorophenyl)-2-hydroxypropyl)-1H-1,2,3-triazol-1-yl)-5-fluorophenol] | 64 (≈ 184 µM) | 128 (≈ 368 µM) | 128 (≈ 368 µM) |  | 8 (≈ 23 µM) |  | 128 (≈ 368 µM) |  |  |  |  |  |  |
| CC(O)(Cc1cn(-c2cc(Cl)ccc2O)nn1)c1ccc(Cl)cc1Cl (stereo not shown) [Compound 3ba, 4-Chloro-2-(4-(2-(2,4-dichlorophenyl)-2-hydroxypropyl)-1H-1,2,3-triazol-1-yl)phenol] | > 256 | > 256 | > 256 |  | 32 (≈ 80.3 µM) |  | > 256 |  |  |  |  |  |  |
| CCC(O)(c1ccccc1)c1cn(-c2ccc(Cl)cc2O)nn1 (stereo not shown) [Compound 2db] |  |  |  |  |  |  |  | 128 (≈ 388 µM) | 128 (≈ 388 µM) | 128 (≈ 388 µM) | >128 | 64 (≈ 194 µM) | 128 (≈ 388 µM) |
| CC(O)(Cc1cn(-c2ccccc2O)nn1)c1ccc(Br)cc1 (stereo not shown) [Compound 3fd, 2-(4-(2-(4-Bromophenyl)-2-hydroxypropyl)-1H-1,2,3-triazol-1-yl)phenol] | 128 (≈ 342 µM) | 128 (≈ 342 µM) | 256 (≈ 684 µM) |  | 32 (≈ 85.5 µM) |  | 128 (≈ 342 µM) |  |  |  |  |  |  |

Now from value to molecule, other results behind:

| MIC [1, 8] [mg/L] | MIC [2, 9] [mg/L] | MIC [3] [mg/L] | MIC [4, 10] [mg/L] | MIC [5, 11] [mg/L] | MIC [6, 12] [mg/L] | MIC [7, 13] [mg/L] | SMILES | MIC [1, 14] [mg/L] | MIC [2, 14] [mg/L] | MIC [4, 14] [mg/L] | MIC [5, 15] [mg/L] | MIC [6, 14] [mg/L] | MIC [7, 14] [mg/L] |
| --- | --- | --- | --- | --- | --- | --- | --- | --- | --- | --- | --- | --- | --- |
| 64 (≈ 157 µM) | 64 (≈ 157 µM) | 64 (≈ 157 µM) | 16 (≈ 39.2 µM) | 16 (≈ 39.2 µM) | 32 (≈ 78.3 µM) | 32 (≈ 78.3 µM) | CC(O)(Cc1cn(-c2ccc(Cl)cc2O)nn1)c1ccc(Br)cc1 (stereo not shown) [Compound 3fb, 2-(4-(2-(4-Bromophenyl)-2-hydroxypropyl)-1H-1,2,3-triazol-1-yl)-5-chlorophenol] |  |  |  |  |  |  |
| 16 (≈ 39.2 µM) | 32 (≈ 78.3 µM) | 64 (≈ 157 µM) |  | 4 (≈ 9.79 µM) |  | 32 (≈ 78.3 µM) | CC(O)(Cc1cn(-c2cc(Cl)ccc2O)nn1)c1ccc(Br)cc1 (stereo not shown) [Compound 3fa, 2-(4-(2-(4-Bromophenyl)-2-hydroxypropyl)-1H-1,2,3-triazol-1-yl)-4-chlorophenol] |  |  |  |  |  |  |
| > 256 | 128 (≈ 350 µM) | 128 (≈ 350 µM) | 32 (≈ 87.5 µM) | 32 (≈ 87.5 µM) | 32 (≈ 87.5 µM) | 64 (≈ 175 µM) | CC(O)(Cc1cn(-c2cc(Cl)ccc2O)nn1)c1ccc(F)cc1F (stereo not shown) [Compound 3aa, 4-Chloro-2-(4-(2-(2,4-difluorophenyl)-2-hydroxypropyl)-1H-1,2,3-triazol-1-yl)phenol] |  |  |  |  |  |  |
| 64 (≈ 167 µM) | 64 (≈ 167 µM) | 32 (≈ 83.7 µM) | 8 (≈ 20.9 µM) | 16 (≈ 41.9 µM) | 16 (≈ 41.9 µM) | 16 (≈ 41.9 µM) | CC(O)(Cc1cn(-c2ccc(F)cc2O)nn1)c1ccc(Cl)cc1Cl (stereo not shown) [Compound 3bc, 2-(4-(2-(2,4-Dichlorophenyl)-2-hydroxypropyl)-1H-1,2,3-triazol-1-yl)-5-fluorophenol] |  |  |  |  |  |  |
| 64 (≈ 176 µM) | 64 (≈ 176 µM) | 64 (≈ 176 µM) | 8 (≈ 22 µM) | 16 (≈ 43.9 µM) | 16 (≈ 43.9 µM) | 32 (≈ 87.9 µM) | CC(O)(Cc1cn(-c2cc(Cl)ccc2O)nn1)c1ccc(Cl)cc1 (stereo not shown) [Compound 3ea, 4-Chloro-2-(4-(2-(4-chlorophenyl)-2-hydroxypropyl)-1H-1,2,3-triazol-1-yl)phenol] |  |  |  |  |  |  |
| 64 (≈ 184 µM) | 128 (≈ 368 µM) | 128 (≈ 368 µM) | 32 (≈ 92 µM) | 32 (≈ 92 µM) | 64 (≈ 184 µM) | 64 (≈ 184 µM) | CC(O)(Cc1cn(-c2cc(Cl)ccc2O)nn1)c1ccc(F)cc1 (stereo not shown) [Compound 3da, 4-Chloro-2-(4-(2(4fluorophenyl)-2-hydroxypropyl)-1H-1,2,3-triazol-1-yl)phenol] |  |  |  |  |  |  |
| 16 (≈ 40.1 µM) | 32 (≈ 80.3 µM) | 32 (≈ 80.3 µM) | 16 (≈ 40.1 µM) | 4 (≈ 10 µM) | 16 (≈ 40.1 µM) | 8 (≈ 20.1 µM) | CC(O)(Cc1cn(-c2ccc(Cl)cc2O)nn1)c1ccc(Cl)cc1Cl (stereo not shown) [Compound 3bb, 5-Chloro-2-(4-(2-(2,4-dichlorophenyl)-2-hydroxypropyl)-1H-1,2,3-triazol-1-yl)phenol] |  |  |  |  |  |  |
| 32 (≈ 92 µM) | 64 (≈ 184 µM) | 128 (≈ 368 µM) |  | 16 (≈ 46 µM) |  | 128 (≈ 368 µM) | CC(O)(Cc1cn(-c2ccc(Cl)cc2O)nn1)c1ccc(F)cc1 (stereo not shown) [Compound 3db, 5-Chloro-2-(4-(2-(4-fluorophenyl)-2-hydroxypropyl)-1H-1,2,3-triazol-1-yl)phenol] |  |  |  |  |  |  |
| 16 (≈ 43.9 µM) | 32 (≈ 87.9 µM) | 64 (≈ 176 µM) |  | 8 (≈ 22 µM) |  | 32 (≈ 87.9 µM) | CC(O)(Cc1cn(-c2ccccc2O)nn1)c1ccc(Cl)cc1Cl (stereo not shown) [Compound 3bd, 2-(4-(2-(2,4-Dichlorophenyl)-2-hydroxypropyl)-1H-1,2,3-triazol-1-yl)phenol] |  |  |  |  |  |  |
| 256 (≈ 817 µM) | 256 (≈ 817 µM) | > 256 |  | 64 (≈ 204 µM) |  | 256 (≈ 817 µM) | CC(O)(Cc1cn(-c2ccccc2O)nn1)c1ccc(F)cc1 (stereo not shown) [Compound 3dd, 2-(4-(2-(4-Fluorophenyl)-2-hydroxypropyl)-1H-1,2,3-triazol-1-yl)phenol] |  |  |  |  |  |  |
